Experimental data as given in patent US4230617A, “Somatostatin analogues” (American Home Products Corporation, priority 1979, dated 1980).
Where a name gives a salt, the structure may show the parent alone. Positions of bridges follow the written chain, without caps; N, C: chain ends. Non-standard residues stand in square brackets, D forms with d. Residues, ends and D or L forms follow the SMILES beside them.

Columns and labels:
Assay type in all cases: in vivo, albino male rats
growth hormone [1] = experiment: Duration test: same procedure with 2 and 4 hour period before blood sampling, growth hormone radioimmunoassay; settings: rat, 1,000 ug/kg
Method: (§1) The in vivo activity of the polypeptides of this invention was established by subjecting the product of Examples 2 and 3 as representative compounds of the invention, to the following standard test procedure: Two groups of ten albino male rats were arranged to provide a control group and a group for study of the compounds of this invention. Nembutal (50 mg/kg) was injected intraperitoneally into each rat. Fifteen minutes late a subcutaneous injection of the test compound or physiological saline (control) was administered separately to each of the two groups of rats. Ten minutes later 0.5 milliliters of arginine (300 mg/ml., pH 7.2) was injected into the rats heart. The rats were decapitated five minutes later and their blood was collected in Trasylol-EDTA. Aliquot samples were radioimmunoassayed for growth hormone, insulin and glucagon. The results of these tests are presented below:
The procedure described in the preceding paragraph was repeated with the exception that a 2 and 4 hour period was allowed to elapse before blood sampling.

glucagon = experiment: Arginine-stimulated glucagon release in Nembutal-anesthetized rats, blood radioimmunoassay; settings: rat
Method: as §1, with “glucagon.” for “glucagon. The results of these tests are presented below:”

insulin = experiment: Arginine-stimulated insulin release in Nembutal-anesthetized rats, blood radioimmunoassay; settings: rat
Method: as §1, with “glucagon.” for “glucagon. The results of these tests are presented below:”

growth hormone [2] = experiment: Arginine-stimulated growth hormone release in Nembutal-anesthetized rats, blood radioimmunoassay; settings: rat, * p < 0.01
Method: as §1, with “glucagon.” for “glucagon. The results of these tests are presented below:”

[3] = 2 hours before blood sampling, * p < 0.01
[4] = 4 hours before blood sampling, + p < 0.05
[5] = summary statement, for periods up to about four hours

Compound: C[C@@H](O)[C@@H]1NC(=O)[C@H](Cc2ccccc2)NC(=O)[C@H]([C@@H](C)O)NC(=O)[C@H](CCCCN)NC(=O)[C@@H](Cc2c[nH]c3ccccc23)NC(=O)[C@H](Cc2c[nH]c3ccccc23)NC(=O)[C@H](Cc2ccccc2)NC(=O)[C@H](Cc2c[nH]cn2)NC(=O)[C@H](CCCNC(=N)N)NC(=O)[C@@H](N)CSSC[C@@H](C(=O)O)NC(=O)[C@H](CO)NC1=O [Example 2, L-Cysteinyl-L-arginyl-L-histidyl-L-phenylalanyl-L-tryptophyl-D-tryptophyl-L-lysyl-L-threonyl-L-phenylalanyl-L-threonyl-L-seryl-L-cysteine cyclic (1-12) disulfide tetraacetate salt] (H-CRHFW[dW]KTFTSC-OH; disulfide 1-12)
- GH (growth hormone [1]; [3]): 51 ± 9 ng/mL
- GH (growth hormone [1]; [4]): 60 ± 11 ng/mL
- GLUN (glucagon; 50 μg/kg subcutaneous, control 119 ± 8, * p < 0.01): 36 ± 8 pg/mL
- GLUN (glucagon; 200 μg/kg subcutaneous, control 85 ± 6, * p < 0.01): 20 ± 4 pg/mL
- glucagon release (result in words) (glucagon; [5]): suppress
- INS (insulin; 50 μg/kg subcutaneous, control 137 ± 25): 61 ± 4 μU/ml
- INS (insulin; 200 μg/kg subcutaneous, control 238 ± 23, + p < 0.05): 149 ± 23 μU/ml
- insulin release (result in words) (insulin; [5]): suppress
- GH (growth hormone [2]; 50 μg/kg subcutaneous, control 379 ± 50): 104 ± 8 ng/mL
- GH (growth hormone [2]; 200 μg/kg subcutaneous, control 202 ± 11): 92 ± 8 ng/mL

Compound: C[C@@H](O)[C@@H]1NC(=O)[C@H](Cc2ccccc2)NC(=O)[C@H]([C@@H](C)O)NC(=O)[C@H](CCCCN)NC(=O)[C@@H](Cc2c[nH]c3ccccc23)NC(=O)[C@H](Cc2c[nH]cn2)NC(=O)[C@H](Cc2ccccc2)NC(=O)[C@H](Cc2c[nH]cn2)NC(=O)[C@H](CCCNC(=N)N)NC(=O)[C@@H](N)CSSC[C@@H](C(=O)O)NC(=O)[C@H](CO)NC1=O [Example 3, L-Cysteinyl-L-arginyl-L-histidyl-L-phenylalanyl-L-histidyl-D-tryptophyl-L-lysyl-L-threonyl-L-phenylalanyl-L-threonyl-L-seryl-L-cysteine cyclic (1-12) disulfide tetraacetate salt] (H-CRHFH[dW]KTFTSC-OH; disulfide 1-12)
- GH (growth hormone [1]; [3]): 181 ± 59 ng/mL
- GH (growth hormone [1]; [4]): 129 ± 29 ng/mL
- GLUN (glucagon; 100 μg/kg subcutaneous, control 89 ± 14): 72 ± 13 pg/mL
- INS (insulin; 100 μg/kg subcutaneous, control 268 ± 21): 282 ± 48 μU/ml
- GH (growth hormone [2]; 100 μg/kg subcutaneous, control 201 ± 40): 48 ± 20 ng/mL
